# Data: paper PMC10541190 (The Journal of Clinical Investigation, 2023)
# Values joined by “and” are separate entries in the source; they are usually repeats but may differ in a detail not shown here. Equal entries are not always repeated. Where two headings read alike, the source gives them in different places.
# Key:
# [1] = test system: VEEV (TC-83); type: cell-based
# [2] = test system: ACE2; type: cell-based, human
# [3] = test system: rVSV-SARS-CoV-2-S; test: microbe, parasite or virus in culture; type: cell-based
# [4] = test system: DENV2; type: cell-based
# [5] = test system: MAP2K5; details: cited from earlier work
# [6] = biological target: ErbB2 (Homo sapiens, UniProt P04626); type: cell-based
# Sequence of ErbB2 (P04626 23-1255): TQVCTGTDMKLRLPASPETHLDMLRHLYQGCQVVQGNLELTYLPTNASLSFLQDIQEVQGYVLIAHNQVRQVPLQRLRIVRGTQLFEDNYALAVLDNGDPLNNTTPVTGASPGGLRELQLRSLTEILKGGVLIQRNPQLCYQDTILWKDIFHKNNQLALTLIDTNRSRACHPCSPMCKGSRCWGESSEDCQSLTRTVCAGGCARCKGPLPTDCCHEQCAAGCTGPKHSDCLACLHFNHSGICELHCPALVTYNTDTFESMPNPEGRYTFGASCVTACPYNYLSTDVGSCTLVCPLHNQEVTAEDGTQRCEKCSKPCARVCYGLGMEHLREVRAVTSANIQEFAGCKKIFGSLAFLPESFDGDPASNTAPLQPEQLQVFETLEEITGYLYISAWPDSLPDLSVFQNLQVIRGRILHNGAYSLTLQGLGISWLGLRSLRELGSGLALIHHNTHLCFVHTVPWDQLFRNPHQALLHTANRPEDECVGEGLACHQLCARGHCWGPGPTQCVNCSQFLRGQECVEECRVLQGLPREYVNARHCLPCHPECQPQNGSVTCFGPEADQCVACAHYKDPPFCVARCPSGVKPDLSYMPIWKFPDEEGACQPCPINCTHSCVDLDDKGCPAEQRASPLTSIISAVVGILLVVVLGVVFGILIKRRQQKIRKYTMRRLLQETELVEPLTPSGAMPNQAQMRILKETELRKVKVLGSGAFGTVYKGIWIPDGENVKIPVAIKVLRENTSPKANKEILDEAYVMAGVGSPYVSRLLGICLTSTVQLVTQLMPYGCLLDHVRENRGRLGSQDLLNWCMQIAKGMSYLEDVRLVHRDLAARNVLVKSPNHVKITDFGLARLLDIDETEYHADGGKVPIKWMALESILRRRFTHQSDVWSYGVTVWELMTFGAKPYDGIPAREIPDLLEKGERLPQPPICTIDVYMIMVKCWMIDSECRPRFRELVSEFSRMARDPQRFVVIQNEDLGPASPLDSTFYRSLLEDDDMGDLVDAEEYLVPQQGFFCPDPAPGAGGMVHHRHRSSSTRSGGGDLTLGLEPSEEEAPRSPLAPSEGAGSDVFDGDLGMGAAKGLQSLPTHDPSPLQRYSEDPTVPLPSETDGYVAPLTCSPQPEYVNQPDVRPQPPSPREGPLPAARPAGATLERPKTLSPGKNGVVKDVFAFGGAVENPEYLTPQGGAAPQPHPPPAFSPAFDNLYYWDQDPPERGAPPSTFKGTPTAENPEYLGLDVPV
# [7] = test system: AKT, ERK, and p38 MAPK; type: cell-based, human
# [8] = test system: IL-2, IL-12p70, IL-13, IL-6, IFN-γ, IL-10; type: cell-based, human
# [9] = test system: VEEV (TC-83); test: microbe, parasite or virus in culture; type: cell-based; details: Venezuelan equine encephalitis virus, U-87 MG, read-out: EC50, VEEV (TC-83) infection
compound,measurement,setting,value
CS(=O)(=O)CCNCc1ccc(-c2ccc3ncnc(Nc4ccc(OCc5cccc(F)c5)c(Cl)c4)c3c2)o1 [Lapatinib],replication of TC-83,[1],dose-dependently inhibited replication
same,cell surface level of ACE2 in infected cells,[2],reversed the effect of SARS-CoV-2 infection
same,EC50,"[3]; Severe acute respiratory syndrome coronavirus 2, Calu-3, read-out: EC50, rVSV-SARS-CoV-2-S infection",2600 to 3200 nM
same,EC50,"[3]; read-out: EC50, rVSV-SARS-CoV-2-S infection",2600 nM
same,replication of DENV2,[4],dose-dependently inhibited replication
same,Other targets: MAP2K5 (% of control),[5],"RAF1 (0%), STK10 (1.4%), RIPK2 (6.1%), MAP2K5 (12%), SLK (18%)"
same,increase in cell surface level of ErbB2,[6],more than 2 fold
same,SARS-CoV-2-induced activation of AKT and ERK (1.5 and 24 hpi) and p38 MAPK (24 hpi),[7],dramatically inhibited
same,IFN-γ concentration,[8],26.79 pg/mL and 38.39 pg/mL
same,IL-1β concentration,[8],11.89 pg/mL and 16.34 pg/mL
same,IL-2 concentration,[8],11.13 pg/mL and 12.03 pg/mL
same,IL-4 concentration,[8],7.10 pg/mL and 9.18 pg/mL
same,IL-6 concentration,[8],1072.19 pg/mL and 1729.84 pg/mL
same,IL-8 concentration,[8],2235.87 pg/mL and 2263.16 pg/mL
same,IL-10 concentration,[8],8.47 pg/mL and 10.43 pg/mL
same,IL-12p70 concentration,[8],18.48 pg/mL and 18.83 pg/mL
same,IL-13 concentration,[8],9.88 pg/mL and 8.83 pg/mL
same,TNF-α concentration,[8],22.84 pg/mL and 21.83 pg/mL
same,"production of IL-2, IL-12p70, IL-13 and IL-6",[8],reduced the production
same,EC50,[9],1200 nM
